These results are taken from patent US8598345B2 (priority 2009, dated 2013).

In the first series the target is human mGluR5 (Homo sapiens, UniProt P41594). The note with it: read-out: human mGluR5 IC50.
Sequence of human mGluR5 (P41594 21-1212): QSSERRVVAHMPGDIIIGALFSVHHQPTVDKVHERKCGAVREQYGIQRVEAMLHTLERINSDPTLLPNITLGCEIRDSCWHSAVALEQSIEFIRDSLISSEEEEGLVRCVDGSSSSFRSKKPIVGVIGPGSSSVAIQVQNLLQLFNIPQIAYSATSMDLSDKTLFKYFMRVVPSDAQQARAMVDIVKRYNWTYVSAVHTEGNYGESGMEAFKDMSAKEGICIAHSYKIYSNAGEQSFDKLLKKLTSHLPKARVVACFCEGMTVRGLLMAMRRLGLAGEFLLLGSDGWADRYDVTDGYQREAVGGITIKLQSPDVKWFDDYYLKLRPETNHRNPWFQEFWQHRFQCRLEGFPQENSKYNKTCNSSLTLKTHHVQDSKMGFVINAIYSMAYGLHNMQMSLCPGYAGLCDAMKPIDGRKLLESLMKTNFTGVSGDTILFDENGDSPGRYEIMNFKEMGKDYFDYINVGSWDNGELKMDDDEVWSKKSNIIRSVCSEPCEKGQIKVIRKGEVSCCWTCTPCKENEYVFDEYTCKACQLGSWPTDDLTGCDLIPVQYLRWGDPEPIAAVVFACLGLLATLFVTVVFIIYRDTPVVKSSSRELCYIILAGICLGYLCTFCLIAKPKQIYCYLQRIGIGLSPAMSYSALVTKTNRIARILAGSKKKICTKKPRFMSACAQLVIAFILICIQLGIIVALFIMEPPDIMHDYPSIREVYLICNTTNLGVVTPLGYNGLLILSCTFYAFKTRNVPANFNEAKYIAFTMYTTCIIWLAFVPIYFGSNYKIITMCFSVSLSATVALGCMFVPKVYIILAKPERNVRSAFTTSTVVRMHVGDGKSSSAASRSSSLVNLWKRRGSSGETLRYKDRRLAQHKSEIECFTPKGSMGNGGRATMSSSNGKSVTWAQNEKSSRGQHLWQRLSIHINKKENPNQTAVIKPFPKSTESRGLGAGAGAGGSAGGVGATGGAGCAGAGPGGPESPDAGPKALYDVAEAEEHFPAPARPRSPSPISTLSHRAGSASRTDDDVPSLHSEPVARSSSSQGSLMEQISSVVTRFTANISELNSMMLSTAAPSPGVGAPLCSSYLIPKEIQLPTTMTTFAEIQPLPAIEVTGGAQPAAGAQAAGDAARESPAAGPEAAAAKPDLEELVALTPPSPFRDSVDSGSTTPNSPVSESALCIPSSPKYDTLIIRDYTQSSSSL
Procedure: The cells were loaded with a Ca2+-sensitive fluorescent dye (e.g., Fluo-4), and the plates were washed and placed in the FDSS instrument. Test compound was applied to cells 3 seconds after baseline readings were taken. Cells were incubated with the test compounds for 140 seconds and then stimulated with an EC20 concentration of an mGluR5 agonist (e.g., glutamate, 3,5-dihydroxyphenylglycine, or quisqualate); 60-80 seconds later an EC80 concentration of agonist was added and readings taken for an additional 40 seconds. Data were collected at 1 Hz. […] Concentration response curves were generated using a four parameter logistical equation.
The above described assay was operated in two modes. In the first mode (utilizing a triple add protocol), a range of concentrations of the present compounds were added to cells, followed by two single fixed concentrations of agonist (EC20 followed by EC80). If a compound acted as a potentiator, an EC50 value for potentiation of the EC20 response and a maximum extent of potentiation by the compound at this concentration of agonist was determined by non-linear curve fitting. If a compound acted as an antagonist, an IC50 value for antagonism of the EC80 response and a maximum extent of antagonism by the compound at this concentration of agonist was determined by non-linear curve fitting. In the second mode (utilizing a double add protocol), several fixed concentrations of the present compounds were added to various wells on a plate, followed by a range of concentrations of agonist for each concentration of present compound; the EC50 values for the agonist at each concentration of compound were determined by nonlinear curve fitting. A decrease in the EC50 value of the agonist with increasing concentrations of the present compounds (a leftward shift of the agonist concentration-response curve) is an indication of the degree of mGluR5 positive allosteric modulation at a given concentration of the present compound. An increase in the EC50 value of the agonist with increasing concentrations of the present compounds (a rightward shift of the agonist concentration response curve) is an indication of the degree of mGluR5 antagonism at a given concentration of the present compound. The second mode also indicates whether the present compounds also affect the maximum response to mGluR5 to agonists.
The mGluR5 activity was determined using the metabotropic glutamate receptor activity assays in human embryonic kidney cells as described herein. The mGluR5 activity data for some compounds are shown as the average of at least three experiments with the standard error in these cases. If no error is indicated for the mGluR5 activity, the values given represent the results from a single experiment or the average of two experiments.
With `O=C(Nc1ccc(F)cn1)c1cc(Oc2cncnc2)ccn1`, the 50% inhibitory concentration (IC50) is 364 nM. Same read-out and setting: the figure for `Cc1nc(NC(=O)c2cc(Oc3cncnc3)ccn2)sc1F` is 943 nM; for `Cc1cccc(NC(=O)c2cc(N(C)c3cncnc3)ccn2)n1` it is 2150 nM. Still for that read-out and setting: the figure for `O=C(Nc1cccc(Cl)n1)c1cc(Oc2cncnc2)ccn1` is 245 nM; for `O=C(Nc1cc(F)ccn1)c1cc(Oc2cncnc2)ccn1` it is 201 nM. The same measure, in the same setting: under `O=C(Nc1cccc(F)n1)c1cc(Oc2cncnc2)ccn1` stands 161 nM. For the compound `Cc1cccc(NC(=O)c2cc(Oc3cncnc3)ccn2)n1` [N-(6-methylpyridin-2-yl)-4-(pyrimidin-5-yloxy)picolinamide], the IC50 worked out at 47 nM. Consider `Cc1csc(NC(=O)c2cc(Oc3cccnc3)ccn2)n1` [N-(4-methylthiazol-2-yl)-4-(pyridin-3-yloxy)picolinamide], for which the 50% inhibitory concentration (IC50) is 101 nM.

System in the next series: not given
The note with it: intravenous administration to rhesus monkeys; literature; cited from earlier work.
Consider `Cc1nc(C#Cc2cccnc2)cs1` [MTEP, 3-[(2-methyl-1,3-thiazol-4-yl)ethynyl]pyridine], for which the clearance entry is “efficiently cleared”.

As usually defined, the IC50 is the concentration at which inhibition is half-maximal.
